Reference: US20250166176A1, “METHODS AND MATERIALS FOR IMAGING ADIPOSE TISSUE” (CellSight Technologies Inc., priority 2022, published 2025)

What was measured:
Format in all cases: in vivo
[1] = test system: intrascapular BAT (iBAT); assay: [18F]F-AraG and FDG PET imaging of BAT in mice treated with BRL37344, insulin or vehicle
[2] = test system: iBAT; assay: [18F]F-AraG PET imaging of iBAT in mice with GBM tumors; settings: one GBM mouse with highest neuroinflammation
Excerpt: During our studies into the utility of ^18F-AraG in assessing intracranial T cell infiltration in glioblastoma multiforme (GBM) we made the unexpected and surprising discovery that ^18F-AraG can also image and/or assess the activation of adipose tissue (FIG. 2). Adipose, or fat, tissue (AT) was once considered an inert tissue that primarily existed to store lipids, and was not historically recognized as an important organ in the regulation and maintenance of health. With the rise of obesity and more rigorous research, AT is now recognized as a highly complex metabolic organ involved in a host of important physiological functions, including glucose homeostasis and a multitude of endocrine capabilities. […] The study of AT can provide useful insights in developing strategies to combat these highly prevalent metabolic diseases.
[^18F]F-AraG ability to track stimulated adipocytes allowed observation of activated iBAT in mice with bioluminescently-tagged GBM tumors. The activation occurred at different time points and varied in intensity.

[3] = test system: BAT and marrow adipose tissue; assay: [18F]F-AraG PET imaging after chronic dosing with BRL37344; settings: mice, 3 days+1 h prior to imaging

SMILES	[18F]F-AraG uptake in iBAT ([1]; control animals) [% ID/g]	[18F]F-AraG uptake in iBAT ([1]; insulin-treated mice) [% ID/g]	accumulation of [18F]F-AraG in intrascapular BAT (iBAT) ([1]; mice, BRL37344 administered one hour prior to imaging) [% ID/g]	iBAT [18F]F-AraG signal ([2]; OnTx3) [% ID/g]	iBAT [18F]F-AraG signal ([2]; PreTx) [% ID/g]	effect of chronic dosing on [18F]F-AraG signal (in words) [3]
Nc1nc2c(ncn2[C@@H]2O[C@H](CO)[C@@H](O)[C@@H]2[18F])c(=O)[nH]1 [[^18F]F-AraG, [18F]-F-arabinofuranosyl guanine]	4.11±0.76	3.36±0.62	10.98±1.64	14.92	1.70	
C[C@H](Cc1ccc(OCC(=O)O)cc1)NC[C@H](O)c1cccc(Cl)c1 [BRL37344]						increase in [^18F]F-AraG signal not only in the classical, intrascapular BAT. but also in lumbar spinal cord and proximal tibia
